Results reported in US8575376B2, “Steroide anionic compounds, method of their production, usage and pharmaceutical preparation involving them” (Ustav Organicke Chemie A Biochemie Akademie Ved Ceske …, priority 2009, dated 2013).

Legend:
[1] = biological target: T1, recombinant NR1/NR2B receptors (Rattus norvegicus, UniProt P35439+Q00960); conditions: 100 μM pregnanolone sulphate, recombinant NR1/NR2B receptors (Petrovic et al., 2005); listed as preganolone sulphate; cited from earlier work
T1 construct: expressed in transfected cells; host or cells: HEK293 cells (ATCC CRL1573)
T1 sequence (Q00960 27-1482, other chains not shown): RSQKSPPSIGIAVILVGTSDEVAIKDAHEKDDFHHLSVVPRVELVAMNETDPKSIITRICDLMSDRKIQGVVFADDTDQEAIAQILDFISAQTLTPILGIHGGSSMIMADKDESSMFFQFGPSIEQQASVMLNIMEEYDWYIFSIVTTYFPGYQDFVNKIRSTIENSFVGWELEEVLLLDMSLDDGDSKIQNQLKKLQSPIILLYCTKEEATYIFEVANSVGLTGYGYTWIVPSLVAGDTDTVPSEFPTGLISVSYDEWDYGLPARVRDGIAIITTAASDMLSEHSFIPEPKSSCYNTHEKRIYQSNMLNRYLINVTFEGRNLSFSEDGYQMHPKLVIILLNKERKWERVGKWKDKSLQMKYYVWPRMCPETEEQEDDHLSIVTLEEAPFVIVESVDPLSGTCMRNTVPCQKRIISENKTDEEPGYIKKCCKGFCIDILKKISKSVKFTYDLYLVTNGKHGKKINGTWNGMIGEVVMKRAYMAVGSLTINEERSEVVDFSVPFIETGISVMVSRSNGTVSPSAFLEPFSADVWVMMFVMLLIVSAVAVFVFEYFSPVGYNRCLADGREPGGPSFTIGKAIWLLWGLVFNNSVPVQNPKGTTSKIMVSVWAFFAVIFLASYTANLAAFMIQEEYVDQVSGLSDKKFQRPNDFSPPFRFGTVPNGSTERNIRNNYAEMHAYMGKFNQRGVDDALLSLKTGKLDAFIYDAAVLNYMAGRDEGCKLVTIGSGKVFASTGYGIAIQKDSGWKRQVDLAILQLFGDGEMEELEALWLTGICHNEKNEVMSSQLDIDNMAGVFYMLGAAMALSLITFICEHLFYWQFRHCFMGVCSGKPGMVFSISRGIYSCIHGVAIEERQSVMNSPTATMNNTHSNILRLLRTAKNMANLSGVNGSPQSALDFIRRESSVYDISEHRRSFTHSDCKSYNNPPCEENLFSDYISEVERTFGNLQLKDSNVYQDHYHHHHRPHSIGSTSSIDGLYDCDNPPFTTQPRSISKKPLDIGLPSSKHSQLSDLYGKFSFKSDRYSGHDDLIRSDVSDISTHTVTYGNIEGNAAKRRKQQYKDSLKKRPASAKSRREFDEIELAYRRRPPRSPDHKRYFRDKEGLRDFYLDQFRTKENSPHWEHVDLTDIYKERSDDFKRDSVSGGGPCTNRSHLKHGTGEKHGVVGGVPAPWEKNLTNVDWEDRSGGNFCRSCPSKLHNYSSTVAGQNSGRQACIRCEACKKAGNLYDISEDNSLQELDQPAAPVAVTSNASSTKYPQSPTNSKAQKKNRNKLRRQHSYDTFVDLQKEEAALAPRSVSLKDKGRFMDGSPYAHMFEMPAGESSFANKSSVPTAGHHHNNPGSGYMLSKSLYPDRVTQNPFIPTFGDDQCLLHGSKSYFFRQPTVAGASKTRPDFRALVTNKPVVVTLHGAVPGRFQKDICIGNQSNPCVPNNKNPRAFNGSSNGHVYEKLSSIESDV

[2] = test system: NMDA receptor on hippocampal neurons; conditions: 100 μM pregnanolone sulphate, responses to 100 μM NMDA, hippocampal neurons (Petrovic et al., 2005); cited from earlier work
[3] = biological target: T1, recombinant NR1/NR2B receptors; assay: Patch-clamp, inhibition of glutamate responses of recombinant NMDA receptors in transfected HEK293 cells; format: cell-based; conditions: for IC50: calculated from relative inhibition with Hill's coefficient 1.2; for Relative inhibition effect (%): responses to 1 mM glutamate, -60 mV, HEK293 NR1-1a/NR2B, steroid 50, 100 or 200 μM
rats [4] = assay: Open-field locomotion in MK-801 animal model of schizophrenia; format: in vivo, rat; conditions: substance alone; Example 9 0.1 and 1 mg/kg, MK-801 0.1 mg/kg
Experimental: The effect of the compound from example 9 in doses of 0.1 mg/kg and 1 mg/kg on locomotor activity in open field test was evaluated. Locomotor activity expressed as a total distance travelled during 30 min exploration of a box (68×68×30 cm) located in a sound proof room was measured using a video tracking system for automation of the behavioural experiments (Noldus, EthoVision, Version 2.1.).

rats [5] = assay: Active allothetic place avoidance (AAPA) task, compound applied alone; format: in vivo, rat
Experimental: The effect of compound from Example 9 on cognitive behaviors and locomotion was assessed using active allothetic place avoidance (AAPA) task, which requires intact hippocampi and ability of animals to navigate in space using distinct reference frames (spatial navigation and “cognitive coordination”) (Wesierska et al., 2005) and it also allows measuring changes in the accompanying locomotor activity. AAPA task training involves animals trained to move over a slowly rotating uniform circular arena, on which a prohibited sector is defined, entering which is punished by a mild footshock. A shock sector and its position can be determined solely by its relationship to distal orienting cues in the room (Stuchlik et al., 2008).
This task is highly dependent upon hippocampal formation, with unilateral reversible ablation of this structure with TTX leading to avoidance deficit (Cimadevilla et al., 2001). Animals solving this task should walk in a direction opposite to arena rotation; otherwise it would be repeatedly brought to a fixed sector by arena rotation. We conducted 4 acquisition session of AAPA task, during which the sector location was always reinforced and remained stable throughout the training. Each session lasted 20 min.
Control animals obtained saline intraperitoneally (i.p.) whilst experimental groups received subcutaneous (s.c.) injections of the compound from Example 9 at doses 1 mg/kg and 10 mg/kg (dissolved in cyclodextrin). Solution of compound from Example 9 (1 mg/2 ml or 10 mg/2 ml in cyclodextrin) was applied s.c. at a volume 2 ml/kg of body weight (b.w.). Intraperitonal application of dizocilpine (a non-competitive NMDA receptor antagonist; showing significant neuroprotective activity but exerting cognition-disturbing and psychotomimetic effects) was used as a positive control. Dizocilpine was applied at doses 0.1 mg/kg, 0.2 mg/kg and 0.3 mg/kg. It is worth noting that dizocilpine (albeit its experimental neuroprotective activity) is often used to model schizophrenia-like behaviors in […] and it has been repeatedly shown to exert a dose-dependent learning deficit and hyperlocomotion.

C6 glioma cell line = assay: Growth of glioma cells in culture; format: cell-based; conditions: 0.1 and 1 μg in 50 ml β-cyclodextrine solution, 3 div + 6 days
Experimental: The effect of compound from the example 9 (the model molecule) on growth of glioma cells was studied on C6 glioma cell line (ATTC, Rockville). The model molecule was tested at doses of 0.1 and 1 μg dissolved in 50 ml of β-cyclodextrine solution. Parallel control groups were administered by cholesterol at doses of 0.1 and 1 μg dissolved in 50 ml of β-cyclodextrine solution. The last group included in the experiment was left intact without any application.
The cells were cultivated in vitro for 3 days (div). Afterwards tested molecule was applied and the cell culture was studied for additional 6 days. Olympus microscope with phase contrast and 200× magnification was used for the cell monitoring.

[6] = Example 9 1 and 10 mg/kg s.c., dizocilpine 0.1-0.3 mg/kg i.p.

Row | Molecule | IC50 [3] | Relative inhibition effect (%) [3] | other results
1 | 20-oxo-5beta-pregnan-3alpha-yl sulfate [Pregnanolone sulphate] | 55 µM | – | mean inhibition effect [1]: 67.2±8.2%; mean inhibition effect [2]: 71.3±5.0%
2 | C[C@]12N[C@H](Cc3ccccc31)c1ccccc12 [dizocilpine] | – | – | locomotion in open field (total distance, 30 min) (rats [4]): hyperlocomotion state induced by MK-801; maximum time avoided in AAPA (rats [5]; [6]): significantly decreased rats' performance; number of entrances into shock sector in AAPA (rats [5]; [6]): dose-dependently disrupted this parameter; total distance traveled in AAPA (locomotor activity) (rats [5]; Example 9 1 and 10 mg/kg s.c., dizocilpine 0.1-0.3 mg/kg i.p., 20-min sessions): dose-dependently and consistently stimulated the locomotor activity; locomotor activity in AAPA (rats [5]; dizocilpine 0.1 mg/kg i.p.): hyperlocomotion was not observed; locomotor activity in AAPA (rats [5]; dizocilpine 0.2 mg/kg i.p.): marked locomotor hyperactivity; locomotor activity in AAPA (rats [5]; dizocilpine 0.3 mg/kg i.p.): even more dramatic hyperlocomotion
3 | CC(=O)[C@H]1CC[C@H]2[C@@H]3CC[C@@H]4C[C@H](OC(=O)CCCCCCC(=O)O)CC[C@]4(C)[C@H]3CC[C@]12C [Example 15, 20-Oxo-5β-pregnan-3α-yl 7-carboxyheptanoate] | 175 µM | 54.0 ± 10.8% | –
4 | CC(=O)[C@H]1CC[C@H]2[C@@H]3CC[C@@H]4C[C@H](OC(=O)CCCCC(=O)O)CC[C@]4(C)[C@H]3CC[C@]12C [Example 13, 20-Oxo-5β-pregnan-3α-yl-adipyl 1-ester] | 40 µM | 87.3 ± 8.9% | –
5 | CC(=O)[C@H]1CC[C@H]2[C@@H]3CC[C@@H]4C[C@H](OC(=O)[C@@H](N)CC(=O)O)CC[C@]4(C)[C@H]3CC[C@]12C [Example 3, 20-Oxo-5β-pregnan-3α-yl L-aspartyl 1-ester] | 51 µM | 83.6 ± 2.7% | –
6 | CC(=O)[C@H]1CC[C@H]2[C@@H]3CC[C@@H]4C[C@H](OC(=O)C(C)CC(=O)O)CC[C@]4(C)[C@H]3CC[C@]12C (stereo partly drawn) [Example 19, 20-Oxo-5β-pregnan-3α-yl 3-carboxy-ξ-methyl-propanoate] | 30 µM | 80.9 ± 3.6% | –
7 | CC(=O)[C@H]1CC[C@H]2[C@@H]3CC[C@@H]4C[C@H](OC(=O)CCCCCC(=O)O)CC[C@]4(C)[C@H]3CC[C@]12C [Example 14, 20-Oxo-5β-pregnan-3α-yl 6-carboxyhexanoate] | 135 µM | 61.5 ± 10.6% | –
8 | CC(=O)[C@H]1CC[C@H]2[C@@H]3CC[C@@H]4C[C@H](OC(=O)/C=C\C(=O)O)CC[C@]4(C)[C@H]3CC[C@]12C [Example 17, 20-Oxo-5β-pregnan-3α-yl (Z)-3-carboxyprop-2-enoate] | 14 µM | 81.6 ± 2.7% | –
9 | CC(C)CCC[C@@H](C)[C@H]1CC[C@H]2[C@@H]3CC=C4C[C@@H](O)CC[C@]4(C)[C@H]3CC[C@]12C [cholesterol, reference compound] | – | – | effect on growth of glioma cells (C6 glioma cell line): slightly apparent
10 | COC(=O)CN[C@@H]1CC[C@@]2(C)[C@H](CC[C@@H]3[C@@H]2CC[C@]2(C)[C@@H](C(C)=O)CC[C@@H]32)C1.Cl [Example 26, N-(20-Oxo-5β-pregnan-3α-yl) glycine methylester hydrochloride] | 250 µM | 43.4 ± 3.4% | –
